Measured values published in the supplement of paper PMC5579334.

Tests used:
[1] = test system: HS-Sch-2; assay: % inhibition of CellTiter-Glo viability at highest tested concentration (72 h), relative to DMSO and benzethonium chloride controls; higher = more inhibition
Outline: (§1)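 Viability was scored by CellTiter-Glo ATP luminescence, scaled from vehicle to positive-control wells, with duplicates averaged where present. The cells, MPNST lines and primary human Schwann cells at 750–1000 per well, sat 72 h at 37 °C, 5% CO2, in 384-well plates preprinted with each compound at five concentrations in 10-fold steps. Four-parameter logistic fits were run on the data. These fits give drug sensitivity score and relative IC50 censored at the top concentration, and percent inhibition is reported at the top concentration.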

[2] = test system: HS-PSS; assay: as above
Outline: as §1

[3] = test system: YST-1; assay: as above
Outline: as §1

[4] = test system: HS-PSS; assay: drug sensitivity score (DSS, CellTox-Green cytotoxicity, 72 h) (DSS (dimensionless)); higher = more cytotoxic; extreme values may be limits of the assay
Outline: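 MPNST cell lines and primary human Schwann cells were incubated 72 h at 37 °C in 384-well plates holding five 10-fold compound dilutions. CellTox-Green was added before seeding at a final 1:1000 dilution and reported fluorescence from DNA released by disrupted cells. Signals were scaled to vehicle and positive-control wells, and cultures failing plate quality control were dropped. Drug sensitivity score and relative IC50 come from four-parameter logistic fits, with IC50 censored at the top concentration.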

[5] = test system: HS-Sch-2; assay: drug sensitivity score (DSS, CellTiter-Glo viability, 72 h) (DSS (dimensionless)); higher = more sensitive; extreme values may be limits of the assay
Outline: as §1

[6] = test system: HS-PSS; assay: as above
Outline: as §1

[7] = test system: YST-1; assay: as above
Outline: as §1

SMILES | % inhibition [1] | % inhibition [2] | % inhibition [3] | drug sensitivity score [4] | drug sensitivity score [5] | drug sensitivity score [6] | drug sensitivity score [7]
FC(F)(F)c1ccc(CNc2ccc(Cc3c[nH]c4ncc(Cl)cc34)cn2)cn1 [Pexidartinib] (max concentration tested 10000 nM) | 18.9% | 25.9% | 17.3% | 0 | 0.57 | 1.79 | 0.84
NC(=O)N1CCC(CC(=O)N2CCC([C@H]3c4ncc(Br)cc4CCc4cc(Cl)cc(Br)c43)CC2)CC1 [Lonafarnib] (max concentration tested 10000 nM) | 55.5% | 58% | 64.4% | 0 | 4.95 | 4.36 | 5.95
CC(=O)N(O)CCCCCNC(=O)CCC(=O)N(O)CCCCCNC(=O)CCC(=O)N(O)CCCCCN [Deferoxamine] (max concentration tested 10000 nM) | 96.3% | 89.5% | 78.5% | 1 | 10.5 | 8.62 | 6.36
CCCOc1ccn2c(C(C)=O)cc(-c3ccccc3S(C)(=O)=O)c2c1 [GSK2801] (max concentration tested 10000 nM) | -6.2% | 0.71% | 0.58% | 0 | 0 | 0 | 0
CN[C@@H](C)C(=O)N[C@H](C(=O)N1CCC[C@H]1c1nc(C(=O)c2ccc(F)cc2)cs1)C1CCCCC1 [LCL161] (max concentration tested 25000 nM) | 44.2% | 27.8% | 38.7% | 0.11 | 2.38 | 2.18 | 3.14
COc1cc(C(=O)NC2CCN(C)CC2)c(F)cc1Nc1ncc2c(n1)N(C1CCCC1)CC(F)(F)C(=O)N2C [TAK-960] (max concentration tested 2500 nM) | 16.2% | 11.9% | 2.44% | 0 | 0.18 | 0 | 0
Cn1cc(C[C@@H](N)C(=O)O)c2ccccc21 [1-methyl-D-tryptophan] (max concentration tested 5000 nM) | 2.88% | 6.24% | -5.86% | 0 | 0 | 0 | 0
CC(C)(O)CC(=O)NCCn1ccc2ncnc(Nc3ccc(Oc4cccc(C(F)(F)F)c4)c(Cl)c3)c21 [TAK-285] (max concentration tested 2500 nM) | -0.95% | -2.72% | 6.24% | 0 | 0 | 0.89 | 0
